Results taken from patent publication US20200038438A1, “ANGSTROM SILVER INJECTION FOR CANCER INHIBITION, PREPARATION METHOD AND APPLICATION THEREOF” (Shenzhen AMCAN Medical Biotechnology Limited, priority 2018, published 2020).
Values joined by “and” are separate entries in the source; they are usually repeats but may differ in a detail not shown here. Equal entries are not always repeated.

Legend:
[1] = tested on: tumor tissue cell, Lung Tumor; assay: 3D drug susceptibility detection (three-dimensional co-culture system), lung tumor patient; format: cell-based, human; settings: serial No. 0018
Source text: A fourth exemplary embodiment is shown below. • 3D drug susceptibility detection result

[2] = tested on: tumor tissue cell, Liver cancer; assay: 3D drug susceptibility detection (three-dimensional co-culture system), liver cancer patient; format: cell-based, human; settings: person
Source text: A second exemplary embodiment is shown below. • 3D drug susceptibility detection result

tumor tissue cell, NSCLC = assay: 3D drug susceptibility detection (three-dimensional co-culture system), NSCLC patient; format: cell-based, human
Source text: A third exemplary embodiment is shown below. • 3D drug susceptibility detection result

[3] = tested on: human hepatocellular carcinoma cells HepG2; assay: CellTiter-Glo cell viability, 72 hours; format: cell-based; settings: duplicate wells
Source text: (§1) A first exemplary embodiment is shown a detection of the angstrom silver on a proliferation influence of human non-small cell lung cancer cells A549 and human hepatocellular carcinoma cells HepG2.
(§2) Reagents and consumables shown below: 1. HepG2, provided by HD Biosciences (Shanghai) Co., Ltd., and passed a mycoplasma detection; 2, F 12K culture medium, American Gibco, Art. No.: 21127-022; 3. EMEM culture medium, American ATCC, Art. No.: 30-2003; 4. Fetal bovine serum (FBS), American Hyclone, Art. No.: CH30160.03; 5. Penicillin-streptomycin liquid, American Invitrogen, Art. No.: CH15140-122; 6. DG-5 (25 Ang) and DG-5 solvents, DG-6 (25 Ang) and DG-6 solvents respectively provided by Shenzhen AMCAN Medical Biotechnology Limited; 7. […] DMSO, American Sigma, Art. No.: D4540; 9. 96-well cell culture plate, American Corning, Art. No.: 3610; 10. CellTiter-Glo Luminescent Cell Viability Assay, American Promega, Art. No.: G7571; 11. Plate reader, American Perkin Elmer, EnVision Multilabel Plate Reader.
(§3) Cell culture medium: 1. A549 culture medium: including 10% fetal bovine serum and F 12K culture medium with 100 U penicillin and 100 μg/mL streptomycin; 2. HepG2 culture medium: including 10% fetal bovine serum and EMEM culture medium with 100 U penicillin and 100 μg/mL streptomycin.
(§4) 3. Only before starting an experiment, in the sterile condition, the prepared dg-5 gradient concentration solution is diluted 2 times by full cell culture medium. At this time, the gradient concentration of a compound to be measured includes 150 ppm, 15 ppm, 1.5 ppm, 0.15 ppm and 0.015 ppm, which is a 2-by-compound solution to be used to treat cells.
(§5) 4. Only before starting the experiment, in the sterile condition, the prepared dg-5 gradient concentration solution was diluted 100 times by the full cell culture medium. At this time, the gradient concentration of the compound to be measured includes 2 μM, 200 nM, 20 nM, 2 nM and 0.2 nM, which is a 2-by-compound solution to be used to treat cells.
(§6) 1. The cell is inoculated in a 96-well cell culture plate the day before the treatment of the compound, while an inoculation density is shown in the experimental design above, and an inoculation volume was 100 μL per hole.
(§7) 2. The next day, the prepared 2-by-compound solution is added to the 96-well cell culture plate according to an arrangement diagram of the compound, and each hole is added to 100 μL.
(§8) 3. Gently oscillating the 96-well cell culture plate and placing it in a 37° C. incubator to continue cultivating for 72 hours.
(§9) 4. After reaching a designated incubation time, a prepared reagent is added to the 96-well cell culture plate according to a CellTiterGlo's reagent specification, and then it is fully blended under a room temperature, finally avoid light incubation for 10 minutes.
(§10) 5. Placing the 96-well cell culture plate in a plate reader to analyze it, and setting it to read chemical luminescence and record data.
(§11) Readout in each hole needs to be converted to a cell viability. The cell viability can be calculated by the following formula: […]

[4] = tested on: human non-small cell lung cancer cells A549; assay: CellTiter-Glo cell viability, 72 hours; format: cell-based; settings: duplicate wells
Source text: as §1, §2, §3, §4, §5, §6, §7, §8, §9, §10, §11

**Q.** For O=c1[nH]cc(F)c(=O)[nH]1 [5-fluorouracil], which “drug efficacy, 3D drug susceptibility detection” value (from here on “drug efficacy”) [1] is on record?
**A.** worst group of efficacy

**Q.** And the “drug efficacy” value [2]?
**A.** Ineffective

**Q.** What about the “drug efficacy” value (tumor tissue cell, NSCLC; serial No. 0015) of the same molecule?
**A.** worst group of efficacy

**Q.** Which “drug efficacy” value [1] does the source give for C=CC(=O)Nc1cc(Nc2nccc(-c3cn(C)c4ccccc34)n2)c(OC)cc1N(C)CCN(C)C [AZD9291] here?
**A.** best group of efficacy

**Q.** And the “drug efficacy” value (tumor tissue cell, NSCLC; serial No. 0015)?
**A.** best group of efficacy

**Q.** For CN[C@@H]1C[C@H]2O[C@@](C)([C@@H]1OC)n1c3ccccc3c3c4c(c5c6ccccc6n2c5c31)C(=O)NC4 [STSP], which “Percentage of cell growth” value ([3]; HepG2, 0.1 nM) is on record?
**A.** 109.0% and 103.4%

**Q.** And the “Percentage of cell growth” value ([3]; HepG2, 1 nM)?
**A.** 88.4% and 86.2%

**Q.** What about the “Percentage of cell growth” value ([3]; HepG2, 100 nM) of the same molecule?
**A.** 17.5% and 22.2%

**Q.** And the “Percentage of cell growth” value ([3]; HepG2, 1000 nM)?
**A.** 9.7% and 11.2%

**Q.** And the “Percentage of cell growth” value ([4]; A549, 0.1 nM)?
**A.** 124.6% and 126.9%

**Q.** What about the “Percentage of cell growth” value ([4]; A549, 1 nM) of the same molecule?
**A.** 99.8% and 99.2%

**Q.** What about the “Percentage of cell growth” value ([4]; A549, 10 nM) of the same molecule?
**A.** 68.8% and 68.5%

**Q.** What about the “Percentage of cell growth” value ([4]; A549, 100 nM) of the same molecule?
**A.** 28.5%

**Q.** How did the “drug efficacy” value [2] turn out when N.N.O=C([O-])C1(C(=O)[O-])CCC1.[Pt+2] [carboplatin] was run?
**A.** Ineffective

**Q.** How did the “drug efficacy” value [2] turn out when CC(=O)O[C@@]12CO[C@@H]1C[C@H](O)[C@@]1(C)C(=O)[C@H](O)C3=C(C)[C@@H](OC(=O)[C@H](O)[C@@H](NC(=O)OC(C)(C)C)c4ccccc4)C[C@@](O)([C@@H](OC(=O)c4ccccc4)[C@H]21)C3(C)C [docetaxel] was run?
**A.** second efficacy

**Q.** How did the “drug efficacy” value [1] turn out when C#Cc1cccc(Nc2ncnc3cc(OCCOC)c(OCCOC)cc23)c1 [erlotinib] was run?
**A.** worst group of efficacy

**Q.** What about the “drug efficacy” value (tumor tissue cell, NSCLC; serial No. 0015) of the same molecule?
**A.** worst group of efficacy

**Q.** COc1cc2ncnc(Nc3ccc(F)c(Cl)c3)c2cc1OCCCN1CCOCC1 [gefitinib] was tested. Which “drug efficacy” value [1] did it give?
**A.** worst group of efficacy

**Q.** And the “drug efficacy” value (tumor tissue cell, NSCLC; serial No. 0015)?
**A.** worst group of efficacy

**Q.** For Nc1ccn([C@@H]2O[C@H](CO)[C@@H](O)C2(F)F)c(=O)n1 [gemcitabine], which “drug efficacy” value (tumor tissue cell, NSCLC; serial No. 0015) is on record?
**A.** best group of efficacy

**Q.** How did the “drug efficacy” value [2] turn out when Cc1ccc(NC(=O)c2ccc(CN3CCN(C)CC3)cc2)cc1Nc1nccc(-c2cccnc2)n1 [imatinib] was run?
**A.** better

**Q.** How did the “drug efficacy” value [2] turn out when CC(=O)O[C@H]1C(=O)[C@@]2(C)[C@H]([C@H](OC(=O)c3ccccc3)[C@]3(O)C[C@H](OC(=O)[C@H](O)[C@@H](NC(=O)c4ccccc4)c4ccccc4)C(C)=C1C3(C)C)[C@]1(OC(C)=O)CO[C@@H]1C[C@@H]2O [paclitaxel] was run?
**A.** second efficacy

**Q.** With Nc1nc2[nH]cc(CCc3ccc(C(=O)N[C@@H](CCC(=O)O)C(=O)O)cc3)c2c(=O)[nH]1 [pemetrexed] as the molecule, how does the “drug efficacy” value [1] read?
**A.** worst group of efficacy

**Q.** And the “drug efficacy” value [2]?
**A.** Ineffective

**Q.** And the “drug efficacy” value (tumor tissue cell, NSCLC; serial No. 0015)?
**A.** worst group of efficacy

**Q.** What about the “drug efficacy” value (tumor tissue cell, NSCLC; serial No. 0015, listed as permetrexed) of the same molecule?
**A.** very poor efficacy

**Q.** Which “drug efficacy” value [2] does the source give for CNC(=O)c1cc(Oc2ccc(NC(=O)Nc3ccc(Cl)c(C(F)(F)F)c3)cc2)ccn1 [sorafenib] here?
**A.** Ineffective
